Source: the supplement of paper PMC10307832

How the values were obtained:
Experiment in all cases: relative viability (nuclei count vs DMSO), 5 days (fraction); higher = more cells survive
[1] = compound: C[As](C)SC[C@H](NC(=O)CC[C@H](N)C(=O)O)C(=O)NCC(=O)O [Darinaparsin] + Cc1nc(NC(=O)N2CCC[C@H]2C(N)=O)sc1-c1ccnc(C(C)(C)C(F)(F)F)c1 [Alpelisib] (partner 2 µM)
Method in brief: (§1)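 After 5 days of treatment, lung cancer cells in 1536-well plates were fixed and stained in a single step (final 0.05% Triton X-100, 1% formaldehyde, 1 ug/ml Hoechst) and their nuclei counted on 4× images. Treatment had been applied by pin tool the day after seeding as one drug alone or as a fixed anchor-drug dose with five library-drug doses (not always all listed) in √10 steps. Relative viability is the nuclei count of treated wells divided by that of vehicle wells, and values are medians of duplicate plates.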

[2] = compound: CC1=C(C=C(C=C1)NC(=O)C2=CC(=CC=C2)C(C)(C)C#N)NC3=CC4=C(C=C3)N=CN(C4=O)C [AZ628] + CC1(C)CCC(c2ccc(Cl)cc2)=C(CN2CCN(c3ccc(C(=O)NS(=O)(=O)c4ccc(N[C@H](CCN5CCOCC5)CSc5ccccc5)c(S(=O)(=O)C(F)(F)F)c4)cc3)CC2)C1 [Navitoclax] (partner 0.5 µM)
Method in brief: as §1

[3] = compound: C1CC2=C(C1)C=C(C=C2)OC3=NC(=C4C(=N3)N(C=N4)CC5=CC=C(C=C5)C6=CC=CC=C6)N[C@@H](CC7=CC=CC=C7)CO [QS11] + C[C@]1(O)C[C@@H](c2nc(-c3ccc4ccc(-c5ccccc5)nc4c3)c3c(N)nccn32)C1 [Linsitinib] (partner 1 µM)
Method in brief: as §1

[4] = compound: C[As](C)SC[C@H](NC(=O)CC[C@H](N)C(=O)O)C(=O)NCC(=O)O [Darinaparsin] + COc1cc2c(Oc3ccc(NC(=O)C4(C(=O)Nc5ccc(F)cc5)CC4)cc3F)ccnc2cc1OCCCN1CCOCC1 [Foretinib] (partner 0.25 µM)
Method in brief: as §1

| Cell Line | relative viability ([1]; first compound 0.08 µM) | relative viability ([1]; first compound 0.8 µM) | relative viability ([1]; first compound 2.53 µM) | relative viability ([1]; first compound 8 µM) | relative viability ([2]; first compound 0.08 µM) | relative viability ([2]; first compound 0.253 µM) | relative viability ([2]; first compound 0.8 µM) | relative viability ([2]; first compound 2.53 µM) | relative viability ([2]; first compound 8 µM) | relative viability ([3]; first compound 0.08 µM) | relative viability ([3]; first compound 0.253 µM) | relative viability ([3]; first compound 2.53 µM) | relative viability ([3]; first compound 8 µM) | relative viability ([4]; first compound 0.08 µM) | relative viability ([4]; first compound 0.8 µM) | relative viability ([4]; first compound 2.53 µM) | relative viability ([4]; first compound 8 µM) | relative viability ([3]; first compound 0.8 µM) |
| --- | --- | --- | --- | --- | --- | --- | --- | --- | --- | --- | --- | --- | --- | --- | --- | --- | --- | --- |
| NCI-H1944 | 0.946 | 0.912 | 0.823 | 0.905 | 1.14 | 1.04 | 1 | 0.949 | 0.921 | 1.18 | 1.38 | 1.18 | 1.26 | 0.917 | 0.898 | 0.731 | 0.995 |  |
| NCI-H1975 | 0.758 | 0.777 | 0.483 | 0.704 | 1.09 | 1.04 | 1.02 | 1.04 | 0.654 | 1.1 | 1.04 | 1.31 | 1.39 | 1.13 | 0.994 | 0.975 | 1.12 | 0.926 |
| NCI-H1993 | 0.712 | 0.681 | 0.688 | 0.678 | 1 | 0.872 | 0.859 | 0.688 | 0.709 | 0.622 | 0.718 | 0.7 | 0.857 | 0.738 | 0.761 | 0.788 | 0.921 | 0.682 |
| NCI-H2009 | 1.25 | 1.19 | 1.06 | 1.16 | 1.11 | 0.94 | 0.98 | 1.04 | 0.455 | 1.25 | 1.26 | 1.03 | 0.95 | 0.435 | 1.18 | 1.15 | 1.33 | 1.13 |
| NCI-H2023 | 0.658 | 0.601 | 0.536 | 0.603 | 1.01 | 1.02 | 1.03 | 0.996 | 0.762 | 0.729 | 0.545 | 0.713 | 0.803 | 0.847 | 0.78 | 0.821 | 0.904 | 0.57 |
| NCI-H2085 | 1.07 | 1 | 1.03 | 0.957 | 1.19 | 1.12 | 1.08 | 1.04 | 0.861 | 0.885 | 1.19 | 0.959 | 1.07 | 1.12 | 0.975 | 0.863 | 0.902 | 1.01 |
| NCI-H2087 | 1.15 | 0.988 | 1.13 | 1.18 | 0.746 | 0.676 | 0.64 | 0.669 | 0.267 | 1.01 | 1.15 | 0.655 | 0.708 | 1.44 | 1.09 | 1.03 | 1.37 | 0.845 |
| NCI-H2126 | 0.803 | 0.737 | 0.616 | 0.804 | 0.894 | 0.886 | 0.866 | 0.794 | 0.624 | 0.71 | 0.814 | 0.683 | 0.643 | 1.17 | 1.1 | 1.05 | 1.13 | 0.679 |
| NCI-H2228 | 1.03 | 0.992 | 0.735 | 0.933 | 0.829 | 1.13 | 1.03 | 1.01 | 0.839 | 0.658 | 0.555 | 0.834 | 0.797 | 1.42 | 0.935 | 0.949 | 0.891 | 0.809 |
| NCI-H2347 | 1.21 | 1.09 | 1.04 | 1.09 | 0.519 | 0.67 | 0.712 | 0.638 | 0.368 | 1.04 | 0.955 | 0.712 | 1.11 | 0.859 | 1.01 | 0.994 | 1.05 | 0.777 |
| NCI-H2405 | 0.735 | 0.734 | 0.693 | 0.755 | 0.49 | 0.64 | 0.53 | 0.415 | 0.575 | 0.893 | 0.925 | 0.942 | 1.17 | 0.994 | 1.05 | 0.929 | 1.07 | 0.946 |
| NCI-H3122 | 0.9 | 0.796 | 0.735 | 1.01 | 0.929 | 0.762 | 0.73 | 0.555 | 0.42 | 1 | 1.17 | 1.17 | 0.842 | 1.03 | 0.964 | 0.94 | 0.789 | 0.919 |
| PC-3 [JPC-3] | 1.02 | 0.982 | 0.992 | 1.11 | 0.835 | 0.782 | 0.875 | 0.814 | 0.817 | 0.939 | 0.978 | 0.947 | 0.97 | 1.13 | 1.03 | 1.1 | 1.13 | 0.964 |
| PC-14 | 0.858 | 1.02 | 0.742 | 1.2 | 1.03 | 0.997 | 1.1 | 1.17 | 0.977 | 1.04 | 1.08 | 0.906 | 0.901 | 1.18 | 0.981 | 0.927 | 1.14 | 0.758 |
| RERF-LC-KJ | 0.865 | 0.917 | 0.73 | 0.873 | 1.04 | 0.816 | 0.755 | 0.861 | 0.745 | 0.933 | 0.929 | 0.868 | 0.782 | 1.03 | 0.931 | 0.859 | 0.961 | 0.854 |
| SK-LU-1 | 1.11 | 0.956 | 0.797 | 1.06 | 0.502 | 0.878 | 1.06 | 0.886 | 0.902 | 1.1 | 1.08 | 0.71 | 0.732 | 1.13 | 0.76 | 0.65 | 0.958 | 0.989 |
| SK-MES-1 | 1.01 | 0.909 | 0.63 | 0.993 | 1.22 | 1.25 | 1.39 | 1.23 | 1.21 | 1.13 | 1.08 | 1.03 | 1.05 | 1.05 | 0.808 | 0.595 | 1.05 | 0.959 |
